Measured values published in patent US8476267B2, “Imidazo-, pyrazolopyrazines and imidazotriazines and their use” (Bayer Intellectual Property GmbH, priority 2007, dated 2013).
pIC50: −log10 of the molar value. Counter-ions that a name gives are not always drawn.

Biological target: GSK3β (Homo sapiens (Human), UniProt P49841)
Test: In vitro biochemical GSK3β inhibition assay (fluorescence, NADH-coupled)
Settings: 5 nM GSK3β, 40 μM substrate GSM, 50 μM ATP, 30° C., 2 hours
Method: The inhibitory activity of active substances is determined in a biochemical assay. The ingredients required for this purpose are mixed in a black 384-well microtiter plate with transparent base (from Greiner, catalog number 781092). The requirements in this connection for each well of the 384-well microtiter plate are 5 nM GSK3β (from Upstate, catalog number xy), 40 μM GSK3β substrate GSM (sequence H-RRRPASVPPSPSLSRHS-(pS)-HQRR, from Upstate, catalog number 2-533), 30 μM nicotinamide adenine dinucleotide NADH (Roche Diagnostics, catalog number 10107735), 50 μM adenosine triphosphate ATP (from Sigma, catalog number A7966) and 2 mM phosphoenolpyruvate (from Roche, catalog number 128112). The required reaction buffer in which the biochemical reaction takes place consists of 50 mM Trizma hydrochloride Tris-HCl pH: 7.5 (from Sigma, catalog number T3253), 5 mM magnesium chloride MgCl2 (from Sigma, catalog number M8266), 0.2 mM DL-dithiothreitol DTT (from Sigma, catalog number D9779), 2 mM ethylenediaminetetraacetic acid EDTA (from Sigma, catalog number E6758), 0.01% Triton X-100 (from Sigma, catalog number T8787) and 0.05% bovine serum albumin BSA (from Sigma, catalog number B4287).
Active substances are dissolved in dimethyl sulfoxide DMSO (from Sigma, catalog number D8418) in a concentration of 10 mM. Active substances are added in serial concentrations of 10 μM, 1 μM, 0.1 μM, 0.01 μM, 0.001 μM, 0.0001 μM, 0.00001 μM, 0.000001 μM to the mixtures of the biochemical reaction. As control, dimethyl sulfoxide is added instead of substance in a final concentration of 0.1%.
The reaction is incubated at 30° C. for 2 hours and then the resulting fluorescence is measured in a Tecan Safire-XFLUOR4 instrument, version V4.50 (serial number 12901300283) with the specifications: measurement mode—fluorescence measured from below, extinction wavelength 340 nm, emission wavelength 465 nm, slit width extinction 5 nm, slit width emission 5 nm, gain mode 120, delay 0 μs, number of light flashes per measurement 3, and an integration time of 40 μs.
The activity of the active substances is calculated in relation to these 0% and 100%.

Sequence of GSK3β (P49841 whole entry, species assumed): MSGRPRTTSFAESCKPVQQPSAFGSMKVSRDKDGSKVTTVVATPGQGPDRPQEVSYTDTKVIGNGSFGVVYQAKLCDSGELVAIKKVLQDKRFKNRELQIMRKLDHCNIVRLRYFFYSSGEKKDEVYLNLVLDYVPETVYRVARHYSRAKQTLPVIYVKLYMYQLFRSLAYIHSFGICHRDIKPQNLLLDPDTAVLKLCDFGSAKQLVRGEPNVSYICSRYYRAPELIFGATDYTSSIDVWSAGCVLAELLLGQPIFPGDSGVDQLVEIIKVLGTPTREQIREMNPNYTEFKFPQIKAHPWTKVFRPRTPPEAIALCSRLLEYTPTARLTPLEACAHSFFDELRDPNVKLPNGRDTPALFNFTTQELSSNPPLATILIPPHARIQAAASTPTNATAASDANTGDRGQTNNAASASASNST

Question: How did the pIC50 turn out when `CN1CCN(CCNC(=O)c2cc3c(NCCNc4ccc(C#N)cn4)nc(-c4ccc(Cl)cc4Cl)cn3n2)CC1` [Example 5] was run?
Answer: Its pIC50 is 7.52.

Question: With `Cc1nc(C)n2nc(-c3ccccc3)nc(NCCNc3ccc(C#N)cn3)c12` [Example 9, 6-({2-[(5,7-Dimethyl-2-phenylimidazo[5,1-f][1,2,4]triazin-4-yl)amino]ethyl}amino)nicotinonitrile] as the compound, how does the pIC50 read?
Answer: The pIC50 was 6.51.

Question: How did the pIC50 turn out when `N#Cc1sc(NCCNc2nc(-c3ccc(Cl)cc3Cl)cn3nc(C(=O)NCC(=O)O)cc23)nc1N` [Example 24] was run?
Answer: Its pIC50 is 8.30.

Question: `N#Cc1sc(NC2CCCN(c3nc(-c4ccc(Cl)cc4Cl)cn4nc(C(=O)O)cc34)C2)nc1N` (stereo not shown) [Example 19] was tested. Which pIC50 did it give?
Answer: The pIC50 was 8.52.

Question: `CCOC(=O)c1cc2c(N3CCCC(Nc4nc(N)c(C(C)=O)s4)C3)nc(-c3ccc(Cl)cc3Cl)cn2n1` (stereo not shown) [Example 17, Ethyl 4-{3-[(5-acetyl-4-amino-1,3-thiazol-2-yl)amino]piperidin-1-yl}-6-(2,4-dichlorophenyl)pyrazolo[1,5-a]pyrazine-2-carboxylate trifluoroacetate] was tested. Which pIC50 did it give?
Answer: The pIC50 was 8.10.

Question: With `N#Cc1ccc(NCCNc2nc(-c3ccc(Cl)cc3Cl)cn3nc(C(=O)O)cc23)nc1` [Example 4, 4-({2-[(5-Cyanopyridin-2-yl)amino]ethyl}amino)-6-(2,4-dichlorophenyl)pyrazolo[1,5-a]pyrazine-2-carboxylic acid hydrochloride] as the compound, how does the pIC50 read?
Answer: Its pIC50 is 7.68.

Question: `N#Cc1ccc(NCCNc2nc(-c3ccc(Cl)cc3Cl)cn3nc(CNC4CC4)cc23)nc1` [Example 58] was tested. Which pIC50 did it give?
Answer: Its pIC50 is 7.10.
